Experimental data: patent US9957263B2, “Bromodomain inhibitors” (AbbVie Inc., priority 2013, dated 2018)

Key:
[1] = biological target: BRD4 (BDI_K57-E168) (Homo sapiens (Human), UniProt O60885); experiment: TR-FRET bromodomain binding assay, BRD4 first bromodomain; conditions: His-tagged BD1, Alexa647-labeled probe 100 nM
Procedure: (§1) A time-resolved fluorescence resonance energy transfer (TR-FRET) assay was used to determine the affinities of compounds of the Examples listed in Table 1 for each bromodomain of BRD4. His-tagged first (BD1: amino acids K57-E168) and second (BD2: amino acids E352-E168) bromodomains of BRD4 were expressed and purified. An Alexa647-labeled BET-inhibitor was used as the fluorescent probe in the assay.
(§2) Compound dilution series were prepared in DMSO via a 3-fold serial dilution from 2.5 mM to 42 nM. Compounds were then diluted 6:100 in assay buffer (20 mM Sodium Phosphate, pH 6.0, 50 mM NaCl, 1 mM Ethylenediaminetetraacetic acid disodium salt dihydrate, 0.01% Triton X-100, 1 mM DL-Dithiothreitol) to yield 3× working solutions. Six microliters (μL) of the working solution was then transferred to white, low-volume assay plates (Costar #3673). A 1.5× assay mixture containing His-tagged bromodomain, Europium-conjugated anti-His antibody (Invitrogen PV5596) and the Alexa-647-conjugated probe molecule was also prepared. Twelve μL of this solution were added to the assay plate to reach a final volume of 18 μL. The final concentration of 1× assay buffer contains 2% DMSO, 50 μM-0.85 nM compound, 8 nM His-tagged bromodomain, 1 nM Europium-conjugated anti-His-tag antibody and 100 nM or 30 nM probe (for BDI or BDII, respectively). After a one-hour incubation at room temperature, TR-FRET ratios were determined using an Envision multilabel plate reader (Ex 340, Em […]).
(§3) TR-FRET data were normalized to the means of 24 no-compound controls (“high”) and 8 controls containing 1 μM un-labeled probe (“low”). Percent inhibition was plotted as a function of compound concentration and the data were fit with the 4 parameter logistic equation to obtain IC50s. Inhibition constants (Ki) were calculated from the IC50s, probe Kd and probe concentration. Typical Z′ values were between 0.65 and 0.75. The minimum significant ratio was determined to evaluate assay reproducibility (Eastwood et al., (2006) J Biomol Screen, 11: 253-261). The MSR was determined to be 2.03 for BDI and 1.93 for BDII, and a moving MSR (last six run MSR overtime) for both BDI and BDII was typically <3.

[2] = biological target: BRD4 (BDII_E352-M457) (Homo sapiens (Human), UniProt O60885); experiment: TR-FRET bromodomain binding assay, BRD4 second bromodomain; conditions: His-tagged BD2, Alexa647-labeled probe 30 nM
Procedure: as §1, §2, §3

Compound	Ki [1] [nM]	Ki [2] [nM]
CN(C)CCCOc1ccc(CN2CCC(Nc3ccc(S(C)(=O)=O)cc3-c3cn(C)c(=O)c4[nH]ccc34)CC2)cc1 [Example 90, 4-{2-[(1-{4-[3-(dimethylamino)propoxy]benzyl}piperidin-4-yl)amino]-5-(methylsulfonyl)phenyl}-6-methyl-1,6-dihydro-7H-pyrrolo[2,3-c]pyridin-7-one]	14	25
CSCCCN1CCC(Nc2ccc(S(C)(=O)=O)cc2-c2cn(C)c(=O)c3[nH]ccc23)CC1 [Example 86, 6-methyl-4-[2-({1-[3-(methylsulfanyl)propyl]piperidin-4-yl}amino)-5-(methylsulfonyl)phenyl]-1,6-dihydro-7H-pyrrolo[2,3-c]pyridin-7-one]	24	75
CC(C)c1ccc(S(=O)(=O)Nc2cccc(Oc3ccc(S(C)(=O)=O)cc3-c3cn(C)c(=O)c4[nH]ccc34)c2)cc1 [Example 46, N-{3-[2-(6-methyl-7-oxo-6,7-dihydro-1H-pyrrolo[2,3-c]pyridin-4-yl)-4-(methylsulfonyl)phenoxy]phenyl}-4-(propan-2-yl)benzenesulfonamide]	10	1.8
COc1cccc(CNc2cccc(Oc3ccc(S(C)(=O)=O)cc3-c3cn(C)c(=O)c4[nH]ccc34)c2)c1 [Example 66, 4-[2-{3-[(3-methoxybenzyl)amino]phenoxy}-5-(methylsulfonyl)phenyl]-6-methyl-1,6-dihydro-7H-pyrrolo[2,3-c]pyridin-7-one]	3.8	1.7
Cn1cc(-c2cc(S(C)(=O)=O)ccc2Oc2cccc(NCc3cccc(F)c3)c2)c2cc[nH]c2c1=O [Example 68, 4-[2-{3-[(3-fluorobenzyl)amino]phenoxy}-5-(methylsulfonyl)phenyl]-6-methyl-1,6-dihydro-7H-pyrrolo[2,3-c]pyridin-7-one]	10	4.7
COc1ccc(S(=O)(=O)Nc2cccc(Oc3ccc(S(C)(=O)=O)cc3-c3cn(C)c(=O)c4[nH]ccc34)c2)cc1 [Example 39, 4-methoxy-N-{3-[2-(6-methyl-7-oxo-6,7-dihydro-1H-pyrrolo[2,3-c]pyridin-4-yl)-4-(methylsulfonyl)phenoxy]phenyl}benzenesulfonamide]	4.6	2.1
CC(=O)Nc1ccc(S(=O)(=O)N2CCC(Nc3ccc(S(C)(=O)=O)cc3-c3cn(C)c(=O)c4[nH]ccc34)CC2)cc1 [Example 103, N-{4-[(4-{[2-(6-methyl-7-oxo-6,7-dihydro-1H-pyrrolo[2,3-c]pyridin-4-yl)-4-(methylsulfonyl)phenyl]amino}piperidin-1-yl)sulfonyl]phenyl}acetamide]	4.1	4.9
Cn1cc(-c2cc(S(C)(=O)=O)ccc2NC2CCN(C(=O)CCN3CCOCC3)CC2)c2cc[nH]c2c1=O [Example 99, 6-methyl-4-[5-(methylsulfonyl)-2-({1-[3-(morpholin-4-yl)propanoyl]piperidin-4-yl}amino)phenyl]-1,6-dihydro-7H-pyrrolo[2,3-c]pyridin-7-one]	12	28
CCNC(=O)c1cc2c(-c3ccc(C(=O)N(C)C4CCN(OC(=O)CC)CC4)cc3Oc3c(C)cccc3C)cn(C)c(=O)c2[nH]1 [Example 154, 4-[2-(2,6-dimethylphenoxy)-4-{methyl[1-(propanoyloxy)piperidin-4-yl]carbamoyl}phenyl]-N-ethyl-6-methyl-7-oxo-6,7-dihydro-1H-pyrrolo[2,3-c]pyridine-2-carboxamide]	1040	13.7
CCS(=O)(=O)c1ccc(Oc2c(C)cccc2Cl)c(-c2cn(C)c(=O)c3[nH]c(C(=O)NCC#N)cc23)c1 [Example 120, 4-[2-(2-chloro-6-methylphenoxy)-5-(ethylsulfonyl)phenyl]-N-(cyanomethyl)-6-methyl-7-oxo-6,7-dihydro-1H-pyrrolo[2,3-c]pyridine-2-carboxamide]	> 238	158
Cn1cc(-c2cc(S(C)(=O)=O)ccc2Oc2cccc(C(=O)NCCCN3CCCC3=O)c2)c2cc[nH]c2c1=O [Example 27, 3-[2-(6-methyl-7-oxo-6,7-dihydro-1H-pyrrolo[2,3-c]pyridin-4-yl)-4-(methylsulfonyl)phenoxy]-N-[3-(2-oxopyrrolidin-1-yl)propyl]benzamide]	26	11
CCNC(=O)c1cc2c(-c3cc(S(=O)(=O)CC)ccc3Oc3c(C)cccc3CN3CCC3=O)cn(C)c(=O)c2[nH]1 [Example 157, N-ethyl-4-[5-(ethylsulfonyl)-2-{2-methyl-6-[(2-oxoazetidin-1-yl)methyl]phenoxy}phenyl]-6-methyl-7-oxo-6,7-dihydro-1H-pyrrolo[2,3-c]pyridine-2-carboxamide]	387	16.9
Cn1cc(-c2cc(S(C)(=O)=O)ccc2N[C@H]2CC[C@H](NCc3ccc(F)cc3F)CC2)c2cc[nH]c2c1=O [Example 109, 4-[2-({trans-4-[(2,4-difluorobenzyl)amino]cyclohexyl}amino)-5-(methylsulfonyl)phenyl]-6-methyl-1,6-dihydro-7H-pyrrolo[2,3-c]pyridin-7-one]	1.6	8.3
CN1CCN(CC(=O)N2CCC(Nc3ccc(S(C)(=O)=O)cc3-c3cn(C)c(=O)c4[nH]ccc34)CC2)CC1 [Example 96, 6-methyl-4-[2-({1-[(4-methylpiperazin-1-yl)acetyl]piperidin-4-yl}amino)-5-(methylsulfonyl)phenyl]-1,6-dihydro-7H-pyrrolo[2,3-c]pyridin-7-one]	17	21
Cn1cc(-c2cc(S(C)(=O)=O)ccc2Oc2cccc(NCc3ccccc3F)c2)c2cc[nH]c2c1=O [Example 67, 4-[2-{3-[(2-fluorobenzyl)amino]phenoxy}-5-(methylsulfonyl)phenyl]-6-methyl-1,6-dihydro-7H-pyrrolo[2,3-c]pyridin-7-one]	4.3	2.8
CN(C)C(=O)C1(N2CCCC2=O)CCN(Cc2cc3c(-c4cc(S(C)(=O)=O)ccc4Oc4ccc(F)cc4F)cn(C)c(=O)c3[nH]2)CC1 [Example 155, 1-({4-[2-(2,4-difluorophenoxy)-5-(methylsulfonyl)phenyl]-6-methyl-7-oxo-6,7-dihydro-1H-pyrrolo[2,3-c]pyridin-2-yl}methyl)-N,N-dimethyl-4-(2-oxopyrrolidin-1-yl)piperidine-4-carboxamide]	23.7	364
COCCN[C@H]1CC[C@H](Nc2ccc(S(C)(=O)=O)cc2-c2cn(C)c(=O)c3[nH]ccc23)CC1 [Example 111, 4-[2-({trans-4-[(2-methoxyethyl)amino]cyclohexyl}amino)-5-(methylsulfonyl)phenyl]-6-methyl-1,6-dihydro-7H-pyrrolo[2,3-c]pyridin-7-one]	4.6	12
CCS(=O)(=O)Nc1cc(-c2cn(C)c(=O)c3[nH]ccc23)c(Oc2ccc(F)cc2F)c(C2CC2)c1 [Example 15, N-[3-cyclopropyl-4-(2,4-difluorophenoxy)-5-(6-methyl-7-oxo-6,7-dihydro-1H-pyrrolo[2,3-c]pyridin-4-yl)phenyl]ethanesulfonamide]	4.6	2.6
CCS(=O)(=O)c1ccc(OC2CCCCC2)c(-c2cn(C)c(=O)c3[nH]c(-c4cnn(C5CCNCC5)c4)cc23)c1 [Example 149, 4-[2-(cyclohexyloxy)-5-(ethylsulfonyl)phenyl]-6-methyl-2-[1-(piperidin-4-yl)-1H-pyrazol-4-yl]-1,6-dihydro-7H-pyrrolo[2,3-c]pyridin-7-one]	2.81	0.669
Cc1cccc(S(=O)(=O)Nc2cccc(Oc3ccc(S(C)(=O)=O)cc3-c3cn(C)c(=O)c4[nH]ccc34)c2)c1 [Example 50, 3-methyl-N-{3-[2-(6-methyl-7-oxo-6,7-dihydro-1H-pyrrolo[2,3-c]pyridin-4-yl)-4-(methylsulfonyl)phenoxy]phenyl}benzenesulfonamide]	3.4	1.2
CCNC(=O)c1cc2c(-c3cc(S(=O)(=O)CC)ccc3Oc3c(C)cccc3NCC3CCOC3)cn(C)c(=O)c2[nH]1 (centres unmarked) [Example 133, N-ethyl-4-[5-(ethylsulfonyl)-2-{2-methyl-6-[(tetrahydrofuran-3-ylmethyl)amino]phenoxy}phenyl]-6-methyl-7-oxo-6,7-dihydro-1H-pyrrolo[2,3-c]pyridine-2-carboxamide]	2130	20.3
CC(=O)Nc1ccc(CN[C@H]2CC[C@H](Nc3ccc(S(C)(=O)=O)cc3-c3cn(C)c(=O)c4[nH]ccc34)CC2)cc1 [Example 108, N-(4-{[(trans-4-{[2-(6-methyl-7-oxo-6,7-dihydro-1H-pyrrolo[2,3-c]pyridin-4-yl)-4-(methylsulfonyl)phenyl]amino}cyclohexyl)amino]methyl}phenyl)acetamide]	3.4	5.6
